Source: ChEMBL document CHEMBL5674879, “Enhancer variants reveal a conserved transcription factor network governed by PU.1 during osteoclast differentiation” (Bone Res, 2018)
Active and inactive are the calls of the source.

Legend:
Assay type in all cases: functional, cell-based
Leukemia cell [1] = assay: Effect on osteoclast differentiation in human CSF1-induced mouse primary bone marrow derived acute myeloid leukemia cells at 250 nM assessed as reduction in PU.1 enrichment at PU.1 enhancers near d Fosl2 measured by Conventional ChIP analysis
Leukemia cell [2] = assay: Downregulation of Fosl2 mRNA expression in osteoclasts of human CSF1-induced mouse primary bone marrow derived acute myeloid leukemia cells at 250 nM measured by RT-qPCR analysis
Leukemia cell [3] = assay: Downregulation of Nfatc1 mRNA expression in osteoclasts of human CSF1-induced mouse primary bone marrow derived acute myeloid leukemia cells at 250 nM measured by RT-qPCR analysis
Leukemia cell [4] = assay: Effect on osteoclast differentiation in human CSF1-induced mouse primary bone marrow derived acute myeloid leukemia cells at 250 nM assessed as reduction in PU.1 enrichment at PU.1 enhancers near Nfatc1 measured by Conventional ChIP analysis

Measured: Activity

Cc1sc2c(c1C)C(c1ccc(Cl)cc1)=N[C@@H](CC(=O)OC(C)(C)C)c1nnc(C)n1-2
active: all assays above
